GI50 and TGI data for seven molecules are collected here from PubChem BioAssay (NCI).

Some test systems named below: UACC-257 melanoma; MDA-MB-231 breast; MOLT-4 leukemia; HCC-2998 colon; HS 578T breast; K-562 leukemia; T-47D breast; OVCAR-4 ovarian; A549 NSCLC; LOX IMVI melanoma.
What all share (test): growth of human tumour cells (NCI), 48 h

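Assay format: 96-well plates, 48-hour exposure. GI50 is the concentration that inhibits growth by half. The concentration for full growth arrest is given as TGI.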

As for `Nc1c(C(=O)c2ccc(CCCN3CCOCC3)cc2)cnn1-c1ccc(F)cc1`, the GI50 with UACC-257 melanoma is 24.3 µM; with MDA-MB-231 breast it was above 25 µM; in the assay on MOLT-4 leukemia it was above 25 µM; with HCC-2998 colon, above 25 µM; with HS 578T breast, above 25 µM; in the assay on K-562 leukemia it was 9.33 µM. The GI50 in the assay on T-47D breast is 10.3 µM; in the assay on OVCAR-4 ovarian, above 19.1 µM; in the assay with A549 NSCLC, above 25 µM; in the assay on LOX IMVI melanoma, above 25 µM. Moreover, the TGI with UACC-257 melanoma, with MDA-MB-231 breast, with MOLT-4 leukemia, with HCC-2998 colon, with HS 578T breast and with K-562 leukemia was above 25 µM throughout. The TGI in the assay with T-47D breast, in the assay with OVCAR-4 ovarian, in the assay on A549 NSCLC and in the assay on LOX IMVI melanoma was above 25 µM in each case.
Consider `O=c1oc2ccc(-n3c(=O)c4ccccc4c4ccccc4c3=O)cc2c2ccccc12`, for which the TGI is above 100 µM with UACC-257 melanoma; above 100 µM in the assay with MDA-MB-231 breast; above 100 µM in the assay on MOLT-4 leukemia; above 100 µM with HCC-2998 colon; 81 µM with HS 578T breast; above 100 µM in the assay with K-562 leukemia. Also, the TGI in the assay on T-47D breast, with OVCAR-4 ovarian, in the assay with A549 NSCLC and with LOX IMVI melanoma was above 100 µM each time.
Regarding `COc1ccc(-c2nc(N3CCN(C(=O)C4CCCCC4)CC3)c3c4c(sc3n2)CCCC4)cc1`, the GI50 in the assay on UACC-257 melanoma is above 100 µM; in the assay on MDA-MB-231 breast, 19.4 µM; in the assay on MOLT-4 leukemia it was above 100 µM; in the assay with HCC-2998 colon, above 100 µM; in the assay on HS 578T breast, 24.7 µM; in the assay with K-562 leukemia, above 100 µM. Also, the GI50 in the assay on T-47D breast was 20.6 µM; in the assay on OVCAR-4 ovarian, above 100 µM; with A549 NSCLC, 50.1 µM; in the assay on LOX IMVI melanoma it was above 100 µM. In addition, the TGI is above 100 µM with UACC-257 melanoma; 82.8 µM with MDA-MB-231 breast; above 100 µM in the assay on MOLT-4 leukemia; above 100 µM in the assay on HCC-2998 colon; above 100 µM in the assay with HS 578T breast; above 100 µM with K-562 leukemia. Moreover, the TGI in the assay on T-47D breast, with OVCAR-4 ovarian, in the assay with A549 NSCLC and with LOX IMVI melanoma was above 100 µM in each case.
Regarding `C[C@H](CCCNCCCNCCCN)[C@H]1CC[C@H]2[C@@H]3[C@H](OCCCN)C[C@H]4C[C@H](OCCCN)CC[C@]4(C)[C@H]3C[C@H](OCCCN)[C@]12C`, the GI50 was 9.63 µM in the assay on UACC-257 melanoma; 0.652 µM in the assay on MDA-MB-231 breast; 1.09 µM with MOLT-4 leukemia; 0.653 µM in the assay with HCC-2998 colon; 0.918 µM in the assay on HS 578T breast; 0.458 µM with K-562 leukemia. Also, the GI50 in the assay on T-47D breast was 2.59 µM; in the assay with OVCAR-4 ovarian it was above 45.2 µM; with A549 NSCLC, 2.08 µM; in the assay with LOX IMVI melanoma, 0.888 µM. Further, the TGI in the assay with UACC-257 melanoma was 59.5 µM; in the assay on MDA-MB-231 breast, 18.8 µM; in the assay with MOLT-4 leukemia, 8.12 µM; in the assay on HCC-2998 colon it was 5.02 µM; with HS 578T breast, 12.5 µM; with K-562 leukemia, 3.6 µM. The TGI was above 37 µM in the assay on T-47D breast, above 100 µM in the assay with OVCAR-4 ovarian, 18.3 µM in the assay with A549 NSCLC and 9.41 µM in the assay on LOX IMVI melanoma.
Consider `Cc1cc(Oc2ccc3nc(COc4ccc(CC5SC(=O)NC5=O)cc4)n(C)c3c2)cc(C)c1N` (stereo not given), for which the GI50 was 30.8 µM in the assay on UACC-257 melanoma; 45.4 µM in the assay with MDA-MB-231 breast; 26.4 µM in the assay with MOLT-4 leukemia; 54.9 µM in the assay with HCC-2998 colon; above 57.3 µM with HS 578T breast; 35.4 µM in the assay on K-562 leukemia. The GI50 is 25.7 µM in the assay on T-47D breast, 34.2 µM with OVCAR-4 ovarian, 29.5 µM in the assay with A549 NSCLC and 17.2 µM in the assay on LOX IMVI melanoma. Moreover, the TGI with UACC-257 melanoma was above 75.5 µM; with MDA-MB-231 breast, above 100 µM; in the assay with MOLT-4 leukemia, 69.5 µM; with HCC-2998 colon, above 100 µM; in the assay with HS 578T breast it was above 100 µM; in the assay on K-562 leukemia it was above 100 µM. The TGI in the assay on T-47D breast is above 66.9 µM; with OVCAR-4 ovarian it was above 100 µM; in the assay on A549 NSCLC, above 87.7 µM; in the assay on LOX IMVI melanoma it was above 71.3 µM.
As to `O=S(=O)(Nc1cc(Cl)ccc1Cl)c1ccc(-c2cnc(C3CC3)o2)cc1`, the GI50 was 15 µM in the assay on UACC-257 melanoma; 4.31 µM with MDA-MB-231 breast; 1.64 µM in the assay on MOLT-4 leukemia; 3.03 µM in the assay on HCC-2998 colon; 0.701 µM in the assay on HS 578T breast; 0.4 µM in the assay with K-562 leukemia. Besides, the GI50 with T-47D breast was 1.94 µM; in the assay with OVCAR-4 ovarian it was 11.8 µM; in the assay on A549 NSCLC, 1.66 µM; in the assay with LOX IMVI melanoma, 3.3 µM. Moreover, the TGI in the assay on UACC-257 melanoma is 56.4 µM; in the assay on MDA-MB-231 breast it was 43 µM; in the assay on MOLT-4 leukemia, above 100 µM; in the assay on HCC-2998 colon it was 25.2 µM; in the assay with HS 578T breast, 24 µM; with K-562 leukemia, above 100 µM. Further, the TGI in the assay with T-47D breast, in the assay with OVCAR-4 ovarian, with A549 NSCLC and with LOX IMVI melanoma was above 100 µM in each case.
As for `COC(=O)/C=C/c1cn(C(C)=O)c2ccc(Br)cc12`, the GI50 in the assay on UACC-257 melanoma is 35.6 µM; in the assay with MDA-MB-231 breast it was 11.8 µM; with MOLT-4 leukemia, 27.4 µM; with HCC-2998 colon, 21.8 µM; in the assay with HS 578T breast, 22 µM; in the assay with K-562 leukemia, 0.967 µM. The GI50 in the assay on T-47D breast is 23.4 µM; with OVCAR-4 ovarian it was 31.4 µM; with A549 NSCLC it was 33.8 µM; in the assay on LOX IMVI melanoma, 17.9 µM. Also, the TGI in the assay with UACC-257 melanoma was above 100 µM; in the assay on MDA-MB-231 breast it was 29.5 µM; in the assay on MOLT-4 leukemia, above 100 µM; in the assay on HCC-2998 colon it was 64.8 µM; in the assay on HS 578T breast it was 76.2 µM; in the assay on K-562 leukemia, above 23 µM. Further, the TGI was above 100 µM in the assay on T-47D breast, above 100 µM in the assay on OVCAR-4 ovarian, above 100 µM in the assay with A549 NSCLC and above 77.9 µM in the assay with LOX IMVI melanoma.
